Measured values reported in PubChem BioAssay (NCI).
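96-well plates; 48 h exposure; 5 concentrations. Endpoints by linear interpolation between flanking doses. Not reached: highest tested concentration assigned. Here, GI50 denotes the concentration required for 50% inhibition of growth. At the TGI there is no net growth.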

Tested on: OVCAR-5 ovarian
Assay: growth of human tumour cells (NCI), 48 h

Row | SMILES | GI50 [µM] | TGI [µM]
1 | Cc1cc(N[C@@H]2CCC[C@H](Nc3ccnc4cc(Cl)ccc34)C2)nc(N2CCCCCC2)n1 | 2.06 | 6.26

Tested on: NCI/ADR-RES ovarian
Assay: growth of human tumour cells (NCI), 48 h

Row | SMILES | TGI [µM] | GI50 [µM]
2 | COc1cc2c(cc1OC)C1C3CCCCC3CCN1CC2 (stereo not given) | > 100 | –
3 | NC(=O)c1c(NC(=O)c2ccccc2)sc2c1CCC(=O)C2 | 10.4 | 1.28
4 | COc1cnc2c(c1)C(=O)c1c-2n(CCCN2CCOCC2)c(=O)c2cc(Cl)ccc12 | > 100 | 0.259
5 | Cc1cc(N[C@@H]2CCC[C@H](Nc3ccnc4cc(Cl)ccc34)C2)nc(N2CCCCCC2)n1 | 3.9 | 1.69

Tested on: SR leukemia
Assay: growth of human tumour cells (NCI), 48 h

Row | SMILES | TGI [µM] | GI50 [µM]
6 | COc1cc2c(cc1OC)C1C3CCCCC3CCN1CC2 (stereo not given) | > 100 | –
7 | COc1cc(O)c2c(c1)C(=O)c1cc3c(c(O)c1C2=O)C(OC1OC(C)C(OC)C(O)C1OC)C(OC)C(C)(O)C3=O (stereo not given) | 9.16 | –
8 | COc1cnc2c(c1)C(=O)c1c-2n(CCCN2CCOCC2)c(=O)c2cc(Cl)ccc12 | > 100 | 0.0797
9 | Cc1cc(N[C@@H]2CCC[C@H](Nc3ccnc4cc(Cl)ccc34)C2)nc(N2CCCCCC2)n1 | 0.847 | 0.228

Tested on: RXF 393 renal
Assay: growth of human tumour cells (NCI), 48 h

Row | SMILES | TGI [µM] | GI50 [µM]
10 | COc1cc2c(cc1OC)C1C3CCCCC3CCN1CC2 (stereo not given) | > 100 | –
11 | NC(=O)c1c(NC(=O)c2ccccc2)sc2c1CCC(=O)C2 | 5.46 | 1.17
12 | COc1cnc2c(c1)C(=O)c1c-2n(CCCN2CCOCC2)c(=O)c2cc(Cl)ccc12 | 28 | 0.332
13 | Cc1cc(N[C@@H]2CCC[C@H](Nc3ccnc4cc(Cl)ccc34)C2)nc(N2CCCCCC2)n1 | 3.1 | 1.55

Tested on: SNB-75 CNS
Assay: growth of human tumour cells (NCI), 48 h

Row | SMILES | TGI [µM] | GI50 [µM]
14 | COc1cc2c(cc1OC)C1C3CCCCC3CCN1CC2 (stereo not given) | > 100 | –
15 | NC(=O)c1c(NC(=O)c2ccccc2)sc2c1CCC(=O)C2 | 6.05 | 1.23
16 | COc1cc(O)c2c(c1)C(=O)c1cc3c(c(O)c1C2=O)C(OC1OC(C)C(OC)C(O)C1OC)C(OC)C(C)(O)C3=O (stereo not given) | 16 | –
17 | COc1cnc2c(c1)C(=O)c1c-2n(CCCN2CCOCC2)c(=O)c2cc(Cl)ccc12 | 57.1 | 15.1
18 | Cc1cc(N[C@@H]2CCC[C@H](Nc3ccnc4cc(Cl)ccc34)C2)nc(N2CCCCCC2)n1 | 3.14 | 1.43

Tested on: SF-295 CNS
Assay: growth of human tumour cells (NCI), 48 h

Row | SMILES | TGI [µM] | GI50 [µM]
19 | COc1cc2c(cc1OC)C1C3CCCCC3CCN1CC2 (stereo not given) | > 100 | –
20 | NC(=O)c1c(NC(=O)c2ccccc2)sc2c1CCC(=O)C2 | 7.94 | 2.69
21 | COc1cc(O)c2c(c1)C(=O)c1cc3c(c(O)c1C2=O)C(OC1OC(C)C(OC)C(O)C1OC)C(OC)C(C)(O)C3=O (stereo not given) | 18.3 | –
22 | COc1cnc2c(c1)C(=O)c1c-2n(CCCN2CCOCC2)c(=O)c2cc(Cl)ccc12 | 0.664 | 0.239
23 | Cc1cc(N[C@@H]2CCC[C@H](Nc3ccnc4cc(Cl)ccc34)C2)nc(N2CCCCCC2)n1 | 2.74 | 1.32

Tested on: SF-268 CNS
Assay: growth of human tumour cells (NCI), 48 h

Row | SMILES | TGI [µM] | GI50 [µM]
24 | COc1cc2c(cc1OC)C1C3CCCCC3CCN1CC2 (stereo not given) | > 100 | –
25 | NC(=O)c1c(NC(=O)c2ccccc2)sc2c1CCC(=O)C2 | > 100 | 2.81
26 | COc1cc(O)c2c(c1)C(=O)c1cc3c(c(O)c1C2=O)C(OC1OC(C)C(OC)C(O)C1OC)C(OC)C(C)(O)C3=O (stereo not given) | 36.3 | –
27 | COc1cnc2c(c1)C(=O)c1c-2n(CCCN2CCOCC2)c(=O)c2cc(Cl)ccc12 | > 100 | 0.288
28 | Cc1cc(N[C@@H]2CCC[C@H](Nc3ccnc4cc(Cl)ccc34)C2)nc(N2CCCCCC2)n1 | 3.39 | 1.54

Tested on: HCT-116 colon
Assay: growth of human tumour cells (NCI), 48 h

Row | SMILES | TGI [µM] | GI50 [µM]
29 | COc1cc2c(cc1OC)C1C3CCCCC3CCN1CC2 (stereo not given) | > 100 | –
30 | COc1cc(O)c2c(c1)C(=O)c1cc3c(c(O)c1C2=O)C(OC1OC(C)C(OC)C(O)C1OC)C(OC)C(C)(O)C3=O (stereo not given) | 14.6 | –
31 | COc1cnc2c(c1)C(=O)c1c-2n(CCCN2CCOCC2)c(=O)c2cc(Cl)ccc12 | > 100 | 0.167
